# Reference: patent US9006450B2 (Boehringer Ingelheim International GmbH, priority 2010, dated 2015)
# Target: T1, human ACC2 (Homo sapiens, UniProt O00763)
# T1 construct: made in house; host or cells: insect cells (baculoviral expression system)
# Assay: ACC2 assay, spectrophotometric 384 well assay (NADH-linked, coupled lactate dehydrogenase/pyruvate kinase)
# Format: biochemical
# Conditions: ACC2 assay, hACC2 construct lacking 128 N-terminal amino acids, 25° C., 340 nm; read-out: IC50
# Procedure, shortened: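 Human ACC2 lacking N-terminal 128 aa, baculovirus/insect-cell expressed, anion-exchange purified; 100 mM Tris pH 7.5, 10 mM citrate, 25 mM KHCO3, 1% DMSO. Started with 200 μM NADH and acetyl-CoA plus 500 μM ATP; PK/LDH-coupled A340 decrease read 15 min at 25° C. IC50 by nonlinear fit of low-control-subtracted slopes.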
# T1 sequence (O00763 129-2458 limits assumed): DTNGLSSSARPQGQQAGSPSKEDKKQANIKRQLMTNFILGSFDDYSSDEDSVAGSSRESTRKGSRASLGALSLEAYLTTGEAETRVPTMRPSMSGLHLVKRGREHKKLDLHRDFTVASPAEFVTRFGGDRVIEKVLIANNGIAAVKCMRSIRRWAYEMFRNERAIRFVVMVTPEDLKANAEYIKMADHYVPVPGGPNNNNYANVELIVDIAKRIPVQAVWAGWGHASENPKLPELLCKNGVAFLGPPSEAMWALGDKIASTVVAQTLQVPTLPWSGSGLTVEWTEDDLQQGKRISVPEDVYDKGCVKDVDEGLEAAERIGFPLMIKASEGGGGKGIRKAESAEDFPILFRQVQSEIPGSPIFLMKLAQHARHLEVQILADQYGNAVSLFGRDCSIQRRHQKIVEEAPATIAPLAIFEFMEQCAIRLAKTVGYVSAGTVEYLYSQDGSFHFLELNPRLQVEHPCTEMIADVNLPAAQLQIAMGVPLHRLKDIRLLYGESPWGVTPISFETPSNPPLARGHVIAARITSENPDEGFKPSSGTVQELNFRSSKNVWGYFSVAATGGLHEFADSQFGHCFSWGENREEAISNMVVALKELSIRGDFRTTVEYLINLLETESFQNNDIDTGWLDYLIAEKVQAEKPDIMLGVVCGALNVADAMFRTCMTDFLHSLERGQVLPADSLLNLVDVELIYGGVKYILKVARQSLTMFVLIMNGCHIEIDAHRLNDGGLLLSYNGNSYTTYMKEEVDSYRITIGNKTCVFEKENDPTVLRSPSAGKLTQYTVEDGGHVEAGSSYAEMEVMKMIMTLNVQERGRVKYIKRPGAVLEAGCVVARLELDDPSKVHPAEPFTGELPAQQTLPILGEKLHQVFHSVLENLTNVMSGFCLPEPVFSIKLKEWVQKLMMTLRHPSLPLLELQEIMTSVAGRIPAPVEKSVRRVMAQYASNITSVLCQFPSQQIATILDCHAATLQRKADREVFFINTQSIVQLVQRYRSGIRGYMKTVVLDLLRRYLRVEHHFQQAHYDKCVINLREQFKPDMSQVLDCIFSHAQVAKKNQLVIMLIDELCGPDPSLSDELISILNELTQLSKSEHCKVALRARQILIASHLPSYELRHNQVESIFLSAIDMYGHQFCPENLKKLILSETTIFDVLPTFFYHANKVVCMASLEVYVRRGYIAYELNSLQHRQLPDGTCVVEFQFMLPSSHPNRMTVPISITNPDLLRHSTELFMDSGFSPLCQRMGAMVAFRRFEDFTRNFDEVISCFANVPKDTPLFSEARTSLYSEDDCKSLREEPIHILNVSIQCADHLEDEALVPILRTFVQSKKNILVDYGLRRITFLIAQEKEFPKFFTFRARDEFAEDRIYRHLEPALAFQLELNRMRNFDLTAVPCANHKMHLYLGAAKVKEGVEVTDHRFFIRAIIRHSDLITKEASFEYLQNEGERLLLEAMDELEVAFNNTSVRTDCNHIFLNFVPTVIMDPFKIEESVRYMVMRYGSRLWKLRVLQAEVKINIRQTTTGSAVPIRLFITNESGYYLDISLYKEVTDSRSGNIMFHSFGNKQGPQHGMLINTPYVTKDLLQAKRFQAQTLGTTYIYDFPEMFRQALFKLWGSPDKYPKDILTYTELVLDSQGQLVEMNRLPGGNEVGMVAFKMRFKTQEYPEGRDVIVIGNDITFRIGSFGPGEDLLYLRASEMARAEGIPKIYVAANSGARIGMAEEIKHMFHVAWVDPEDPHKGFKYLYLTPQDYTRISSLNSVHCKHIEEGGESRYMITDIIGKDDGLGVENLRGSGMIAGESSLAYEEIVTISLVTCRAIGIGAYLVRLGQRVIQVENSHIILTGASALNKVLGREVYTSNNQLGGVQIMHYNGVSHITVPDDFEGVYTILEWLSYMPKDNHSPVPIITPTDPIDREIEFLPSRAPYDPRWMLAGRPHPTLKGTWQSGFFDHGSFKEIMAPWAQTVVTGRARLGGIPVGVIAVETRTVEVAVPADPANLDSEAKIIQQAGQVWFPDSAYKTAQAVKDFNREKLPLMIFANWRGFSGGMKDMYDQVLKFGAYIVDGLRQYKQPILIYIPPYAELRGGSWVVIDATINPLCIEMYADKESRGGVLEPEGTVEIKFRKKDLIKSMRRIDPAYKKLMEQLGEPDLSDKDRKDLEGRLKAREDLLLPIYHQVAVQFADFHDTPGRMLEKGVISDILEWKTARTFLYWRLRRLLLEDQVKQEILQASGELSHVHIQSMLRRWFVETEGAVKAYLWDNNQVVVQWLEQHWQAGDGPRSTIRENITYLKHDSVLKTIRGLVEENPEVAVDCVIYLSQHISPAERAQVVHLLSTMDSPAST
row,Compound,IC50 [nM]
1,CCNc1nccc(N2CCC(c3ccc([C@H](C)NC(C)=O)cc3)CC2)n1 [Example 11.50],4200
2,CCNc1cc(N2CCC(c3ccc([C@H](C)NC(C)=O)cc3)CC2)ncn1 [Example 11.51],7800
3,CC(=O)N[C@@H](C)c1ccc(C2CCN(c3cc(-n4ccc(=N)cc4)ncn3)CC2)cc1 [Example 11.52],18500
4,COc1ccc(Nc2cc(N3CCC(c4ccc([C@H](C)NC(C)=O)cc4)CC3)ncn2)cc1 [Example 11.53],6000
5,COc1ccc(Nc2nccc(N3CCC(c4ccc([C@H](C)NC(C)=O)cc4)CC3)n2)cc1 [Example 11.54],3700
6,CC(=O)N[C@@H](C)c1ccc(C2CCN(c3cc(NCc4ccccc4)ncn3)CC2)cc1 [Example 11.55],3700
7,CC(=O)N[C@@H](C)c1ccc(C2CCN(c3ccnc(NCc4ccccc4)n3)CC2)cc1 [Example 11.56],2300
8,CC(=O)N[C@@H](C)c1ccc(C2CCN(c3cc(N4CCCCC4)ncn3)CC2)cc1 [Example 11.57],420
9,CC(=O)N[C@@H](C)c1ccc(C2CCN(c3ccnc(N4CCCCC4)n3)CC2)cc1 [Example 11.58],260
10,CC(=O)N[C@@H](C)c1ccc(C2CCN(c3cc(NCc4ccco4)ncn3)CC2)cc1 [Example 11.59],6100
11,CC(=O)N[C@@H](C)c1ccc(C2CCN(c3ccnc(NCc4ccco4)n3)CC2)cc1 [Example 11.60],5300
12,CC(=O)N[C@@H](C)c1ccc(C2CCN(c3ccnc(NC4CCCC4)n3)CC2)cc1 [Example 11.61],1300
13,CCCCNc1cc(N2CCC(c3ccc([C@H](C)NC(C)=O)cc3)CC2)ncn1 [Example 11.62],3300
14,CCCCNc1nccc(N2CCC(c3ccc([C@H](C)NC(C)=O)cc3)CC2)n1 [Example 11.63],2000
15,COCCNc1nccc(N2CCC(c3ccc([C@H](C)NC(C)=O)cc3)CC2)n1 [Example 11.64],17900
16,CC(=O)N[C@@H](C)c1ccc(C2CCN(c3cc(NCC(C)C)ncn3)CC2)cc1 [Example 11.65],4700
17,CC(=O)N[C@@H](C)c1ccc(C2CCN(c3ccnc(NCC(C)C)n3)CC2)cc1 [Example 11.66],2200
18,CC(=O)N[C@@H](C)c1ccc(C2CCN(c3cc(NCc4ccccn4)ncn3)CC2)cc1 [Example 11.67],26400
19,CCCN(C)c1cc(N2CCC(c3ccc([C@H](C)NC(C)=O)cc3)CC2)ncn1 [Example 11.68],610
20,CCCN(C)c1nccc(N2CCC(c3ccc([C@H](C)NC(C)=O)cc3)CC2)n1 [Example 11.69],200
21,CC(=O)N[C@@H](C)c1ccc(C2CCN(c3cc(NCCC(C)C)ncn3)CC2)cc1 [Example 11.70],4500
22,CC(=O)N[C@@H](C)c1ccc(C2CCN(c3ccnc(NCCC(C)C)n3)CC2)cc1 [Example 11.71],2300
23,CC(=O)N[C@@H](C)c1ccc(C2CCN(c3cc(NCCc4ccccc4)ncn3)CC2)cc1 [Example 11.72],10500
24,CC(=O)N[C@@H](C)c1ccc(C2CCN(c3ccnc(NC4CCOCC4)n3)CC2)cc1 [Example 11.73],15600
25,CC(=O)N[C@@H](C)c1ccc(C2CCN(c3cc(NC4CCOCC4)ncn3)CC2)cc1 [Example 11.74],8300

row,Compound,IC50 [nM]
1,CC(=O)N[C@@H](C)c1ccc(C2CCN(c3ccnc(N[C@H](C)C(C)C)n3)CC2)cc1 [Example 11.75],3800
2,CC(=O)N[C@@H](C)c1ccc(C2CCN(c3cc(N[C@H](C)C(C)C)ncn3)CC2)cc1 [Example 11.76],6000
3,CC(=O)N[C@@H](C)c1ccc(C2CCN(c3cc(N4CC5CCCC5C4)ncn3)CC2)cc1 (stereo partly drawn) [Example 11.77],280
4,CC(=O)N[C@@H](C)c1ccc(C2CCN(c3ccnc(N4CC5CCCC5C4)n3)CC2)cc1 (stereo partly drawn) [Example 11.78],610
5,COC1CN(c2cc(N3CCC(c4ccc([C@H](C)NC(C)=O)cc4)CC3)ncn2)C1 [Example 11.79],4000
6,COC1CN(c2nccc(N3CCC(c4ccc([C@H](C)NC(C)=O)cc4)CC3)n2)C1 [Example 11.80],2300
7,COC1CCN(c2cc(N3CCC(c4ccc([C@H](C)NC(C)=O)cc4)CC3)ncn2)CC1 [Example 11.81],2300
8,CC(=O)N[C@@H](C)c1ccc(C2CCN(c3cc(N(C)Cc4ccccc4)ncn3)CC2)cc1 [Example 11.82],870
9,CC(=O)N[C@@H](C)c1ccc(C2CCN(c3ccnc(N(C)Cc4ccccc4)n3)CC2)cc1 [Example 11.83],410
10,CNc1nccc(N2CCC(c3ccc([C@H](C)NC(C)=O)cc3)CC2)n1 [Example 11.84],6500
11,CNc1cc(N2CCC(c3ccc([C@H](C)NC(C)=O)cc3)CC2)ncn1 [Example 11.85],13900
12,CC(=O)N[C@@H](C)c1ccc(C2CCN(c3ccnc(N(C)C4CC4)n3)CC2)cc1 [Example 11.86],770
13,CC(=O)N[C@@H](C)c1ccc(C2CCN(c3cc(N(C)C4CC4)ncn3)CC2)cc1 [Example 11.87],790
14,CC(=O)N[C@@H](C)c1ccc(C2CCN(c3ccnc(N4Cc5ccccc5C4)n3)CC2)cc1 [Example 11.88],1600
15,CC(=O)N[C@@H](C)c1ccc(C2CCN(c3cc(N4Cc5ccccc5C4)ncn3)CC2)cc1 [Example 11.89],760
16,CC(=O)N[C@@H](C)c1ccc(C2CCN(c3ccnc(N(C)CC4CC4)n3)CC2)cc1 [Example 11.90],230
17,CC(=O)N[C@@H](C)c1ccc(C2CCN(c3cc(N(C)CC4CC4)ncn3)CC2)cc1 [Example 11.91],440
18,CC(=O)N[C@@H](C)c1ccc(C2CCN(c3cc(N4CCC5(CC5)C4)ncn3)CC2)cc1 [Example 11.92],320
19,CC(=O)N[C@@H](C)c1ccc(C2CCN(c3ccnc(N4CCC5(CC5)C4)n3)CC2)cc1 [Example 11.93],550
20,CC(=O)N[C@@H](C)c1ccc(C2CCN(c3ccnc(NCC4CCC4)n3)CC2)cc1 [Example 11.94],1700
21,CC(=O)N[C@@H](C)c1ccc(C2CCN(c3cc(NCC4CCC4)ncn3)CC2)cc1 [Example 11.95],2000
22,CC(=O)N[C@@H](C)c1ccc(C2CCN(c3ccnc(N(C)C4CCCC4)n3)CC2)cc1 [Example 11.96],350
23,CC(=O)N[C@@H](C)c1ccc(C2CCN(c3cc(N(C)C4CCCC4)ncn3)CC2)cc1 [Example 11.97],330
24,CC(=O)N[C@@H](C)c1ccc(C2CCN(c3ccnc(N4CCC4)n3)CC2)cc1 [Example 11.98],660
25,CC(=O)N[C@@H](C)c1ccc(C2CCN(c3cc(N4CCC4)ncn3)CC2)cc1 [Example 11.99],2500

row,Compound,IC50 [nM]
1,CC(=O)N[C@@H](C)c1ccc(C2CCN(c3ccnc(NCc4ccoc4)n3)CC2)cc1 [Example 11.100],5200
2,CC(=O)N[C@@H](C)c1ccc(C2CCN(c3cc(NCc4ccoc4)ncn3)CC2)cc1 [Example 11.101],4000
3,CC(=O)N[C@@H](C)c1ccc(C2CCN(c3ccnc(NCCF)n3)CC2)cc1 [Example 11.102],3200
4,CC(=O)N[C@@H](C)c1ccc(C2CCN(c3cc(NC4CCCC4)ncn3)CC2)cc1 [Example 11.103],2600
5,CC(=O)N[C@@H](C)c1ccc(C2CCN(c3ccnc(N(C)C)n3)CC2)cc1 [Example 11.104],600
6,CC(=O)N[C@@H](C)c1ccc(C2CCN(c3cc(N(C)C)ncn3)CC2)cc1 [Example 11.105],1700
7,CC(=O)N[C@@H](C)c1ccc(C2CCN(c3ccnc(NCCC4CC4)n3)CC2)cc1 [Example 11.106],1600
8,CC(=O)N[C@@H](C)c1ccc(C2CCN(c3cc(NCCC4CC4)ncn3)CC2)cc1 [Example 11.107],2400
9,CC(=O)N[C@@H](C)c1ccc(C2CCN(c3cc(OCC4CC4)ncn3)CC2)cc1 [Example 11.108],110
10,CC(=O)N[C@@H](C)c1ccc(C2CCN(c3cc(OC4CCC4)ncn3)CC2)cc1 [Example 11.109],80
11,CC(=O)N[C@@H](C)c1ccc(C2CCN(c3ccnc(OC4CCC4)n3)CC2)cc1 [Example 11.110],230
12,CC(=O)N[C@@H](C)c1ccc(C2CCN(c3ccnc(NCC4CC4)n3)CC2)cc1 [Example 11.111],640
13,CC(=O)N[C@@H](C)c1ccc(C2CCN(c3cc(NCC4CC4)ncn3)CC2)cc1 [Example 11.112],1100
14,CC(=O)N[C@@H](C)c1ccc(C2CCN(c3cc(N4CCCC4)ncn3)CC2)cc1 [Example 11.113],200
15,CC(=O)N[C@@H](C)c1ccc(C2CCN(c3ccnc(N4CCCC4)n3)CC2)cc1 [Example 11.114],180
16,CC(=O)N[C@@H](C)c1ccc(C2CCN(c3ccnc(NC4CC4)n3)CC2)cc1 [Example 11.115],1500
17,CC(=O)N[C@@H](C)c1ccc(C2CCN(c3cc(O)ncn3)CC2)cc1 [Example 11.116],14500
18,CC(=O)N[C@@H](C)c1ccc(C2CCN(c3ccnc(Nc4cncnc4)n3)CC2)cc1 [Example 11.117],4300
19,CC(=O)N[C@@H](C)c1ccc(C2CCN(c3ccnc(Oc4ccccc4)n3)CC2)cc1 [Example 11.119],240
20,C[C@H](NC(=O)C1CC1)c1ccc(C2CCN(c3nc(Oc4ccc(F)cc4)ncc3F)CC2)cc1 [Example 11.120],280
21,C[C@H](NC(=O)C1CC1)c1ccc(C2CCN(c3nc(N4CCCC4)ncc3F)CC2)cc1 [Example 11.121],470
22,C[C@H](NC(=O)C1CC1)c1ccc(C2CCN(c3nc(N4CCCC4)ncc3C#N)CC2)cc1 [Example 11.122],1400
23,C[C@H](NC(=O)C1CC1)c1ccc(C2CCN(c3ncnc(N4CCCC4)c3F)CC2)cc1 [Example 11.123],200
24,C[C@H](NC(=O)C1CC1)c1ccc(C2CCN(c3nc(OC4CCC4)ncc3F)CC2)cc1 [Example 11.124],880
25,C[C@H](NC(=O)C1CC1)c1ccc(C2CCN(c3nc(N(C)CC4CC4)ncc3F)CC2)cc1 [Example 11.125],340
